Measurements as given in the supplement of paper PMC4862054.

Experiments:
Details in all cases: incubation time: 72 h
[1] = test system: BT-474; experiment: normalised response (% of control), CellTox Green; higher = less cell death (100 = DMSO, 0 = benzethonium chloride kill control)
In short: (§1)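 Each entry is the normalised signal at a single concentration within a series. The series comprised 5 concentrations in 10-fold steps over a compound-specific 10,000-fold range, placed in 384-well plates into which breast cancer cell lines were seeded as 20 µl suspension and incubated 72 h. CellTox Green (485/520 nm) fluorescence and then CellTiter-Glo luminescence were read, with signals normalised per plate to 0.1 % DMSO (100) and a positive kill control (0).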

[2] = test system: BT-549; experiment: as above
In short: as §1

[3] = test system: CAL-120; experiment: as above
In short: as §1

[4] = test system: CAL-148; experiment: as above
In short: as §1

[5] = test system: CAL-51; experiment: as above
In short: as §1

[6] = test system: CAL-85-1; experiment: as above
In short: as §1

[7] = test system: DU-4475; experiment: as above
In short: as §1

[8] = test system: HCC1143; experiment: as above
In short: as §1

[9] = test system: HCC1599; experiment: as above
In short: as §1

[10] = test system: HCC1937; experiment: as above
In short: as §1

[11] = test system: HDQ-P1; experiment: as above
In short: as §1

[12] = test system: Hs578T; experiment: as above
In short: as §1

[13] = test system: MCF-10A; experiment: as above
In short: as §1

[14] = test system: MDA-MB-231; experiment: as above
In short: as §1

[15] = test system: MDA-MB-436; experiment: as above
In short: as §1

[16] = test system: MDA-MB-453; experiment: as above
In short: as §1

[17] = test system: MDA-MB-468; experiment: as above
In short: as §1

[18] = test system: MFM-223; experiment: as above
In short: as §1

[19] = test system: BT-474; experiment: normalised response (% of control), CellTiter-Glo; higher = more viable cells (100 = DMSO, 0 = benzethonium chloride kill control)
Protocol: (§2)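 DSRT, 72 h incubation, CellTox Green / CellTiter-Glo readout. Signal is normalised to DMSO and benzethonium chloride controls. Value is the normalised response at the highest dose.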

[20] = test system: BT-549; experiment: as above
Protocol: as §2

[21] = test system: CAL-120; experiment: as above
Protocol: as §2

[22] = test system: CAL-148; experiment: as above
Protocol: as §2

[23] = test system: CAL-51; experiment: as above
Protocol: as §2

[24] = test system: CAL-85-1; experiment: as above
Protocol: as §2

[25] = test system: DU-4475; experiment: as above
Protocol: as §2

[26] = test system: HCC1143; experiment: as above
Protocol: as §2

[27] = test system: HCC1599; experiment: as above
Protocol: as §2

[28] = test system: HCC1937; experiment: as above
Protocol: as §2

[29] = test system: HDQ-P1; experiment: as above
Protocol: as §2

[30] = test system: Hs578T; experiment: as above
Protocol: as §2

[31] = test system: MCF-10A; experiment: as above
Protocol: as §2

[32] = test system: MDA-MB-231; experiment: as above
Protocol: as §2

[33] = test system: MDA-MB-436; experiment: as above
Protocol: as §2

[34] = test system: MDA-MB-453; experiment: as above
Protocol: as §2

[35] = test system: MDA-MB-468; experiment: as above
Protocol: as §2

[36] = test system: MFM-223; experiment: as above
Protocol: as §2

[37] = test system: SK-BR-3; experiment: as above
Protocol: as §2

SMILES | normalised response [1] | normalised response [2] | normalised response [3] | normalised response [4] | normalised response [5] | normalised response [6] | normalised response [7] | normalised response [8] | normalised response [9] | normalised response [10] | normalised response [11] | normalised response [12] | normalised response [13] | normalised response [14] | normalised response [15] | normalised response [16] | normalised response [17] | normalised response [18] | normalised response [19] | normalised response [20] | normalised response [21] | normalised response [22] | normalised response [23] | normalised response [24] | normalised response [25] | normalised response [26] | normalised response [27] | normalised response [28] | normalised response [29] | normalised response [30] | normalised response [31] | normalised response [32] | normalised response [33] | normalised response [34] | normalised response [35] | normalised response [36] | normalised response [37]
CCn1c(-c2nonc2N)nc2cnc(Oc3cccc(NC(=O)c4ccc(OCCN5CCOCC5)cc4)c3)cc21 (10000 nM) | 98% | 100% | 103% | -66.5% | 43.7% | 109% | 97.6% | -33.8% | 97.9% | 78.5% | 109% | 110% | 93.4% | 52.4% | 74.1% | 108% | 74.3% | 93.6% | 66% | 41.4% | 58.5% | 69.9% | 32.8% | 87.8% | 80% | 76.4% | 74.6% | 76.6% | 75.9% | 49% | 62.9% | 64.4% | 73.3% | 72.2% | 50.7% | 62.1% | 40.9%
COc1cc(O)c2c(c1)/C=C/C[C@H](O)[C@H](O)C(=O)/C=C\C[C@H](C)OC2=O [(5Z)-7-Oxozeaenol] (10000 nM) | 54.5% | 79.2% | 83.6% | 56.2% | 45.5% | 27.7% | 57.9% | 135% | 97.8% | -41.8% | 87.9% | 49.4% | 64.3% | 28.4% | 102% | 85.9% | 51.8% | 67.3% | 14% | 4.83% | 41.3% | 26.9% | 3.02% | 13.9% | 4.88% | 39.9% | 32.7% | 32.5% | 20.5% | 9.82% | 34.5% | 4.8% | 25.1% | 38.5% | 21.4% | 25.6% | 23.5%
CNC(=O)c1cccc(-c2ccc3c(N4CCOC[C@@H]4C)nc(N4CCOC[C@@H]4C)nc3n2)c1 [AZD2014] (10000 nM) | 96.4% | 74.9% | 106% | 58.9% | 90.1% | 77.8% | 86.3% | 110% | 95% | 108% | 104% | 129% | 96% | 107% | 95% | 95.2% | 136% | 93.4% | 49.6% | 19.9% | 23.6% | 15.3% | 20.6% | 27.3% | 23.8% | 25.4% | 65.3% | 42.3% | 34.1% | 27.4% | 33.9% | 46.2% | 54.4% | 33% | 25.6% | 33.6% | 20%
Nc1cc(C(F)(F)F)c(-c2cc(N3CCOCC3)nc(N3CCOCC3)n2)cn1 [Buparlisib] (10000 nM) | 24% | 33.8% | 92.1% | 70% | -15.4% | 104% | 95.8% | 68.6% | 93.4% | 50.4% | 85.7% | 18% | 79.4% | 29.4% | 75.9% | 97.9% | 111% | 81.7% | 15.8% | 3.53% | 56.3% | 79.9% | 1.1% | 83.3% | 80.2% | 57.4% | 94.3% | 36.2% | 46.9% | 75% | 36% | 48% | 65.4% | 75.6% | 11.3% | 47.8% | 81.5%
